Measurements reported in EP0199451B1, “Therapeutic nucleosides” (THE WELLCOME FOUNDATION LIMITED, priority 1985, dated 1986).
Where “and” joins values, the source holds several entries; their conditions need not be identical. Equal entries are not always repeated.

Legend:
[1] = test system: feline leukaemia virus (FeLV); experiment: In vitro anti-feline leukaemia virus activity, indirect fluorescent antigen test in FLF-3 cells; assay type: cell-based, feline embryo lung fibroblasts (FLF-3); conditions: 3 days incubation at 37°C
Procedure: (§1) • (i) In Vitro Activity Susceptible feline embryo lung fibroblasts (FLF-3) were seeded onto multiwell slides (10⁵ cells/ml, 0.05ml/well) with Dulbecco-modified Eagle's essential medium (DME) and incubated at 37°C overnight. […] Concentrations were […]. After 3 days incubation at 37°C, the cultures were assayed by the indirect fluorescent antigen test for the production of FeLV. […] Two cats (a) received 15mg/kg/day, three (b) received 30mg/kg/day and another two (c) received 45mg/kg/day. All doses were administered as three equal doses daily. Of cats (a), only one responded to treatment at all, showing a 10% decrease in FeLV⁺ white blood cells (wbc's). Cats (b) (after 6 weeks) all responded to treatment showing a 10% and 90% drop in Fel_V⁺ wbc's. […] All measurements were taken after 3 weeks therapy, unless otherwise stated.

FeLV = experiment: In vivo anti-feline leukaemia virus activity in persistently infected cats
Procedure: as §1

[2] = Toxicity assay (LD50) in rats; conditions: rat, in vivo
Procedure: (§2) The LD₅₀ value was in excess of 750 mg/kg in both species.

[3] = Toxicity assay (LD50) in mice; conditions: mouse, in vivo
Procedure: as §2

For `Cc1cn([C@H]2C[C@H](N=[N+]=[N-])[C@@H](CO)O2)c(=O)[nH]c1=O`, the “production of FeLV” value ([1]; 50µM and above) was “Complete absence of FeLV”, the activity ([1]; 0.1µm) was “no activity” and the inhibition ([1]; 1µm) was 50-75%. For the same molecule, the inhibition at 10 µM ([1]; 72 h, 10µM) was 90%, the “decrease in FeLV+ white blood cells (wbc's)” value (FeLV; cats (a), intravenous 15mg/kg/day in three equal doses daily, after 3 weeks, only one of two cats responded) was 10% and the “drop in FeLV+ wbc's” value (FeLV; cats (b), intravenous 30mg/kg/day in three equal doses daily, after 6 weeks, individual cats, 30 mg/kg/day) was 10% and 90% and 5%. For the same molecule, the “drop in plasma levels of free FeLV” value (FeLV; cats (b), third cat, intravenous 30mg/kg/day, after 6 weeks) was “hundred-fold”, the “decrease in FeLV+ wbc's” value (FeLV; cats (c), intravenous 45mg/kg/day in three equal doses daily, after 3 weeks, one of two cats) was 10% and the reduction in lymphadenopathy (FeLV; cats (c), intravenous 45mg/kg/day, after 3 weeks, one cat) was “from 2 cm to 0.5 cm”. The response to treatment (FeLV; cats (c), intravenous 45mg/kg/day, after 3 weeks, the other of two cats) was “no response”, the LD50 [2] was over 750 mg/kg and the LD50 [3] was over 750 mg/kg.
